Measured values: the NIST ThermoML archive (doi:10.1021/je060271a)
± gives the expanded uncertainty stated by the source.

Settings: 283.14 K, Liquid, Vibrating tube method

Measured: mass density

CCCCCCC(=O)OCC(COC(=O)CCCCCC)(COC(=O)CCCCCC)COC(=O)CCCCCC [pentaerythritol tetraheptanoate]
992.4 ± 1.2 kg/m3: 11370 kPa | 11499 kPa | 11524 kPa | 11548 kPa | 11573 kPa | 11602 kPa | 11682 kPa
990.9 ± 1.2 kg/m3: 8578.8 kPa | 8758 kPa | 8820.1 kPa | 8839.6 kPa | 8863 kPa | 8882.8 kPa | 8923.2 kPa
990.6 ± 1.2 kg/m3: 8210.2 kPa | 8246.8 kPa | 8301 kPa | 8338.2 kPa | 8372.7 kPa | 8393.6 kPa | 8411 kPa | 8428.8 kPa
992.1 ± 1.2 kg/m3: 10886 kPa | 10957 kPa | 11100 kPa | 11173 kPa
991.1 ± 1.2 kg/m3: 9069.4 kPa | 9103.3 kPa | 9136.4 kPa | 9183.2 kPa | 9198.7 kPa | 9217 kPa | 9232.5 kPa | 9267.1 kPa | 9368.1 kPa | 9538.2 kPa
990.5 ± 1.2 kg/m3: 7920.5 kPa | 7955 kPa | 8005.3 kPa | 8020.9 kPa | 8039.9 kPa | 8071.5 kPa | 8091.2 kPa | 8107.4 kPa | 8140 kPa | 8156.7 kPa | 8176.8 kPa | 8226.8 kPa | 8263.9 kPa | 8317.9 kPa | 8355.3 kPa
993.7 ± 1.2 kg/m3: 13687 kPa | 13704 kPa
991.6 ± 1.2 kg/m3: 9902.5 kPa | 9942.1 kPa | 9978.3 kPa | 10018 kPa | 10059 kPa | 10078 kPa | 10137 kPa | 10156 kPa | 10174 kPa | 10216 kPa | 10277 kPa
989.3 ± 1.2 kg/m3: 5880.4 kPa | 5899.2 kPa | 5907.7 kPa | 5916.4 kPa | 5935.4 kPa | 5952.8 kPa | 5962.7 kPa | 5980.7 kPa | 5989.5 kPa | 6009 kPa | 6017.5 kPa | 6037.6 kPa | 6046.5 kPa | 6066.2 kPa | 6094.9 kPa | 6104.1 kPa
989.2 ± 1.2 kg/m3: 5889.4 kPa | 5944.2 kPa | 5971.7 kPa | 6000.4 kPa
993.6 ± 1.2 kg/m3: 13471 kPa | 13504 kPa | 13721 kPa | 13738 kPa | 13759 kPa | 13776 kPa
992.7 ± 1.2 kg/m3: 11844 kPa | 11928 kPa | 11954 kPa | 12127 kPa | 12219 kPa | 12243 kPa | 12353 kPa
990 ± 1.2 kg/m3: 7032.3 kPa | 7084.7 kPa | 7109.5 kPa | 7137 kPa | 7149.8 kPa | 7165.1 kPa | 7190.7 kPa | 7203.7 kPa | 7219 kPa | 7232.1 kPa | 7287 kPa | 7329.2 kPa | 7355.8 kPa
991.3 ± 1.2 kg/m3: 9317.3 kPa | 9436.7 kPa | 9504.9 kPa | 9521.4 kPa | 9557.6 kPa | 9594.2 kPa | 9610.7 kPa | 9664.8 kPa
989.5 ± 1.2 kg/m3: 6055.5 kPa | 6084.6 kPa | 6113.4 kPa | 6223.2 kPa | 6232.9 kPa | 6242.4 kPa | 6263.6 kPa | 6273.3 kPa | 6294.6 kPa | 6325.9 kPa | 6335.9 kPa | 6355.6 kPa | 6367.7 kPa | 6431 kPa | 6440.8 kPa | 6463.6 kPa | 6550.9 kPa
991.5 ± 1.2 kg/m3: 9574.2 kPa | 9771.3 kPa | 9809.7 kPa | 9923.9 kPa | 9960.2 kPa | 10037 kPa | 10096 kPa
989.4 ± 1.2 kg/m3: 5925.4 kPa | 6028.4 kPa | 6075.2 kPa | 6124.2 kPa | 6133.5 kPa | 6142.8 kPa | 6153.4 kPa | 6162.9 kPa | 6172.4 kPa | 6182.1 kPa | 6193.1 kPa | 6202.5 kPa | 6212.1 kPa | 6254.1 kPa
989.9 ± 1.2 kg/m3: 6746.7 kPa | 6879.7 kPa | 6894 kPa | 6905.9 kPa | 6917.3 kPa | 6929.4 kPa | 6943.4 kPa | 6955.3 kPa | 6967.2 kPa | 6993.5 kPa | 7005.9 kPa | 7072.1 kPa | 7096.9 kPa | 7124.4 kPa | 7178.1 kPa
989.8 ± 1.2 kg/m3: 6677.7 kPa | 6723.8 kPa | 6735.3 kPa | 6782.8 kPa | 6794.2 kPa | 6807.8 kPa | 6818.9 kPa | 6830.8 kPa | 6844.4 kPa | 6868.3 kPa | 6981.6 kPa | 7020.3 kPa | 7057.7 kPa
991.9 ± 1.2 kg/m3: 10445 kPa | 10485 kPa | 10529 kPa | 10549 kPa | 10615 kPa | 10640 kPa | 10661 kPa | 10682 kPa | 10706 kPa | 10748 kPa | 10816 kPa | 10842 kPa
993.5 ± 1.2 kg/m3: 13418 kPa | 13451 kPa | 13541 kPa | 13558 kPa | 13578 kPa | 13595 kPa | 13612 kPa | 13632 kPa | 13648 kPa | 13666 kPa
991.8 ± 1.2 kg/m3: 10114 kPa | 10239 kPa | 10339 kPa | 10359 kPa | 10382 kPa | 10401 kPa | 10425 kPa | 10465 kPa | 10574 kPa
991.7 ± 1.2 kg/m3: 9999.8 kPa | 10197 kPa | 10258 kPa | 10296 kPa | 10319 kPa | 10509 kPa
993.1 ± 1.2 kg/m3: 12643 kPa | 12760 kPa | 12782 kPa | 12805 kPa | 12854 kPa | 12899 kPa | 12926 kPa | 12948 kPa
992.9 ± 1.2 kg/m3: 12373 kPa | 12398 kPa | 12418 kPa | 12464 kPa | 12527 kPa | 12553 kPa | 12622 kPa
992.5 ± 1.2 kg/m3: 11627 kPa | 11657 kPa | 11707 kPa | 11732 kPa | 11762 kPa | 11813 kPa | 11901 kPa | 11981 kPa
991.2 ± 1.2 kg/m3: 9088.3 kPa | 9152.5 kPa | 9248.5 kPa | 9282.6 kPa | 9298.5 kPa | 9333.1 kPa | 9348.8 kPa | 9382 kPa | 9401.3 kPa | 9417.4 kPa | 9468.9 kPa | 9485.1 kPa
993.3 ± 1.2 kg/m3: 12876 kPa | 13072 kPa | 13146 kPa | 13176 kPa | 13225 kPa | 13262 kPa | 13278 kPa | 13313 kPa | 13383 kPa
992.6 ± 1.2 kg/m3: 11788 kPa | 11870 kPa | 12013 kPa | 12040 kPa | 12067 kPa | 12190 kPa
989.7 ± 1.2 kg/m3: 6540.3 kPa | 6564.2 kPa | 6573.4 kPa | 6583.9 kPa | 6596.7 kPa | 6618.3 kPa | 6631.8 kPa | 6642.5 kPa | 6653 kPa | 6664.1 kPa | 6688.4 kPa | 6699.5 kPa | 6712.6 kPa | 6759.9 kPa | 6771.5 kPa | 6856.3 kPa
991.4 ± 1.2 kg/m3: 9452.9 kPa | 9644.3 kPa | 9681.7 kPa | 9698.7 kPa | 9719.2 kPa | 9736.6 kPa | 9792.1 kPa | 9845.5 kPa | 9866.9 kPa | 9884.8 kPa
989.6 ± 1.2 kg/m3: 6282.8 kPa | 6304.3 kPa | 6314.1 kPa | 6345.6 kPa | 6377.5 kPa | 6387.7 kPa | 6397.9 kPa | 6410 kPa | 6420.4 kPa | 6452.9 kPa | 6473.8 kPa | 6484 kPa | 6494.6 kPa | 6506.6 kPa | 6517 kPa | 6527.7 kPa | 6607.2 kPa
990.1 ± 1.2 kg/m3: 7045.1 kPa | 7244.9 kPa | 7258.2 kPa | 7273.8 kPa | 7300 kPa | 7315.9 kPa | 7342.5 kPa | 7385.8 kPa | 7399.3 kPa | 7413.1 kPa | 7487.7 kPa | 7515.3 kPa | 7546.5 kPa | 7561.7 kPa
993.2 ± 1.2 kg/m3: 12971 kPa | 12999 kPa | 13021 kPa | 13045 kPa | 13096 kPa | 13123 kPa | 13201 kPa
992.3 ± 1.2 kg/m3: 11266 kPa | 11318 kPa | 11394 kPa | 11422 kPa | 11446 kPa | 11470 kPa
993 ± 1.2 kg/m3: 12439 kPa | 12485 kPa | 12574 kPa | 12596 kPa | 12665 kPa | 12687 kPa | 12713 kPa | 12734 kPa | 12827 kPa
993.4 ± 1.2 kg/m3: 13243 kPa | 13294 kPa | 13329 kPa | 13348 kPa | 13365 kPa | 13399 kPa | 13435 kPa | 13488 kPa | 13524 kPa
992.8 ± 1.2 kg/m3: 12099 kPa | 12161 kPa | 12264 kPa | 12288 kPa | 12308 kPa | 12333 kPa | 12506 kPa
992.2 ± 1.2 kg/m3: 11005 kPa | 11028 kPa | 11050 kPa | 11122 kPa | 11145 kPa | 11197 kPa | 11221 kPa | 11244 kPa | 11294 kPa | 11342 kPa
990.4 ± 1.2 kg/m3: 7729.3 kPa | 7744.5 kPa | 7775.4 kPa | 7808 kPa | 7841 kPa | 7871.2 kPa | 7889.8 kPa | 7904.8 kPa | 7939.2 kPa | 7970.7 kPa | 7986.3 kPa | 8056 kPa | 8123.4 kPa | 8193.5 kPa
990.8 ± 1.2 kg/m3: 8446.4 kPa | 8503.5 kPa | 8524.7 kPa | 8542.8 kPa | 8560.9 kPa | 8619.5 kPa | 8638.2 kPa | 8679.6 kPa | 8698 kPa | 8716.6 kPa | 8800.4 kPa
990.7 ± 1.2 kg/m3: 8280.8 kPa | 8467.8 kPa | 8485.5 kPa | 8601.1 kPa | 8660.8 kPa | 8739.2 kPa
992 ± 1.2 kg/m3: 10595 kPa | 10727 kPa | 10770 kPa | 10795 kPa | 10863 kPa | 10909 kPa | 10931 kPa | 10979 kPa | 11072 kPa
990.3 ± 1.2 kg/m3: 7372.2 kPa | 7532 kPa | 7576.2 kPa | 7590.2 kPa | 7622 kPa | 7636.1 kPa | 7651 kPa | 7668.2 kPa | 7697.4 kPa | 7760.2 kPa | 7793 kPa | 7855.8 kPa
991 ± 1.2 kg/m3: 8777.1 kPa | 8902.7 kPa | 8943.7 kPa | 8967.5 kPa | 8987.8 kPa | 9012.5 kPa | 9033.2 kPa | 9051.6 kPa | 9118.5 kPa | 9168 kPa
990.2 ± 1.2 kg/m3: 7429.3 kPa | 7442.8 kPa | 7456.9 kPa | 7471.1 kPa | 7501.3 kPa | 7604.7 kPa | 7682.9 kPa | 7715.2 kPa | 7823 kPa
